Test results: patent US20230295200A1 (REGENTS OF THE UNIVERSITY OF MICHIGAN, priority 2022, published 2023)
pKi: −log10 of the molar value.

Experiments:
[1] = target: T1, STAT6 protein (Homo sapiens, UniProt P42226); test: Fluorescence polarization (FP) binding assay, STAT6; conditions: FP competition, 5 nM fluorescein-labeled tracer, 200 nM protein, PBS pH7.4; read-out: Binding STAT6
T1 sequence (P42226 1-847): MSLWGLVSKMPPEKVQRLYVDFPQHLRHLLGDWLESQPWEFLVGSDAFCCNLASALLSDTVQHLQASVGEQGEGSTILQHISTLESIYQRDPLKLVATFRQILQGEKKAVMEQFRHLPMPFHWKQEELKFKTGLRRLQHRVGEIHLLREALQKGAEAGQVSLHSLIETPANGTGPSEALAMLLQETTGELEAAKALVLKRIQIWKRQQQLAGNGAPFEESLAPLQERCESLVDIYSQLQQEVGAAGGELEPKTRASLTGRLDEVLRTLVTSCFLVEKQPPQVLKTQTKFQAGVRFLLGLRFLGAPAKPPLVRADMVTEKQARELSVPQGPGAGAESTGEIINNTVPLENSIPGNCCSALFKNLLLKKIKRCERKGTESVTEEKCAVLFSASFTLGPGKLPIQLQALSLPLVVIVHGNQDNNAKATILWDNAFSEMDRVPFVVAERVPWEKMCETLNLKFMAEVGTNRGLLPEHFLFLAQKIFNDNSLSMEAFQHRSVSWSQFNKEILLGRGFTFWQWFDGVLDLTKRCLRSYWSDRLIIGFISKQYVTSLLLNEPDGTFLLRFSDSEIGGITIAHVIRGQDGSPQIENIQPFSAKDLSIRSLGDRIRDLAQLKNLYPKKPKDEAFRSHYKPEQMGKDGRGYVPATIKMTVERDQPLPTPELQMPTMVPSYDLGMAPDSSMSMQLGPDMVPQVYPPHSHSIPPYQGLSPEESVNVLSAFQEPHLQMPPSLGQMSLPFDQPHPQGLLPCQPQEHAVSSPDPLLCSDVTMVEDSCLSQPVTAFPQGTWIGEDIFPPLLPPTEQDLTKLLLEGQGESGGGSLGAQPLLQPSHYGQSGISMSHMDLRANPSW
In short: (§1)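 5 nM fluorescein tracer + 200 nM STAT protein; PBS pH 7.4, 0.01% BGG, 0.01% Tween-20, 2 mM DTT; shake 15 min, 1 h RT equilibrium; FP read; nonlinear fit for inhibition constants.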

[2] = target: T2, STAT5A (Homo sapiens, UniProt P42229); test: Fluorescence polarization (FP) binding assay, STAT5A; conditions: FP competition, 5 nM fluorescein-labeled tracer, 200 nM protein, PBS pH7.4
T2 sequence (P42229 1-794): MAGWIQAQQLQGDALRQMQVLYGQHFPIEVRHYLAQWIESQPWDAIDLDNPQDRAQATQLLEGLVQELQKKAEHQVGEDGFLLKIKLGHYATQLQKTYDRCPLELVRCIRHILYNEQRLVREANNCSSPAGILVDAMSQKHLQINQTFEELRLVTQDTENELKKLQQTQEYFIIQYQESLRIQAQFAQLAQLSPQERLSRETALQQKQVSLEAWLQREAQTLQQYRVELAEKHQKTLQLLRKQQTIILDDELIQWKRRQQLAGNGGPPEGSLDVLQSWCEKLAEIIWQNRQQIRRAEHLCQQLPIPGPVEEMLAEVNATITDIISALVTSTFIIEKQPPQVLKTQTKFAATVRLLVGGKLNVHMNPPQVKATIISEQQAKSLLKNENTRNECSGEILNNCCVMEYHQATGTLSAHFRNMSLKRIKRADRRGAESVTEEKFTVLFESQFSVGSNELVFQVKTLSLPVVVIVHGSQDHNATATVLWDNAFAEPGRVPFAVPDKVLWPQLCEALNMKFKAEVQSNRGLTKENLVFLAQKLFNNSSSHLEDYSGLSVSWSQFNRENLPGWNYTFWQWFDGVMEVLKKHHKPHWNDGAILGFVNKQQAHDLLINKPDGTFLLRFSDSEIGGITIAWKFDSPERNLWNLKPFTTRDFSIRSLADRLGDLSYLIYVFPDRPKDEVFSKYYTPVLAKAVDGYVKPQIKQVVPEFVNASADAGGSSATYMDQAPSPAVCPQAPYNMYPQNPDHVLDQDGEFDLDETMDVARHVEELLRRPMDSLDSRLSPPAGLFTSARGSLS
In short: as §1

CC(C)(C)[C@H](NC(=O)c1cc2cc(C(F)(F)P(=O)(O)O)ccc2s1)C(=O)N1CCC[C@H]1C(=O)N1CCCC12CCCCC2 [Compound 60, ((2-(((S)-1-((S)-2-(1-azaspiro[4.5]decane-1-carbonyl)pyrrolidin-1-yl)-3,3-dimethyl-1-oxobutan-2-yl)carbamoyl)benzo[b]thiophen-5-yl)difluoromethyl)phosphonic acid]
pKi [1]: 5.00 to 6.00 | pKi [2]: < 5.00

CC(C)(C)[C@H](NC(=O)c1cc2cc(C(F)(F)P(=O)(O)O)ccc2s1)C(=O)N1CCC[C@H]1C(=O)N1CCC2(CCCCC2)C1 [Compound 61, ((2-(((S)-1-((S)-2-(2-azaspiro[4.5]decane-2-carbonyl)pyrrolidin-1-yl)-3,3-dimethyl-1-oxobutan-2-yl)carbamoyl)benzo[b]thiophen-5-yl)difluoromethyl)phosphonic acid]
pKi [1]: 5.00 to 6.00 | pKi [2]: < 5.00

CC(C)(C)[C@H](NC(=O)c1cc2cc(C(F)(F)P(=O)(O)O)ccc2s1)C(=O)N1CCC[C@H]1C(=O)N1CCC2(CCCCCC2)C1 [Compound 62, ((2-(((S)-1-((S)-2-(2-azaspiro[4.6]undecane-2-carbonyl)pyrrolidin-1-yl)-3,3-dimethyl-1-oxobutan-2-yl)carbamoyl)benzo[b]thiophen-5-yl)difluoromethyl)phosphonic acid]
pKi [1]: 5.00 to 6.00 | pKi [2]: < 5.00

CC(C)(C)[C@H](NC(=O)c1cc2cc(C(F)(F)P(=O)(O)O)ccc2s1)C(=O)N1CCC[C@H]1C(=O)N1CCc2ccc(Cl)cc2C1 [Compound 68, ((2-(((S)-1-((S)-2-(7-chloro-1,2,3,4-tetrahydroisoquinoline-2-carbonyl)pyrrolidin-1-yl)-3,3-dimethyl-1-oxobutan-2-yl)carbamoyl)benzo[b]thiophen-5-yl)difluoromethyl)phosphonic acid]
pKi [1]: 5.00 to 6.00 | pKi [2]: < 5.00

CC(C)(C)[C@H](NC(=O)c1cc2cc(C(F)(F)P(=O)(O)O)ccc2s1)C(=O)N1CCC[C@H]1C(=O)NC1(c2ccccc2)CC1 [Compound 71, ((2-(((S)-3,3-dimethyl-1-oxo-1-((S)-2-((1-phenylcyclopropyl)carbamoyl)pyrrolidin-1-yl)butan-2-yl)carbamoyl)benzo[b]thiophen-5-yl)difluoromethyl)phosphonic acid]
pKi [1]: 5.00 to 6.00 | pKi [2]: < 5.00

CN(Cc1ccc(Cl)cc1)C(=O)[C@@H]1CCCN1C(=O)[C@@H](NC(=O)c1cc2cc(C(F)(F)P(=O)(O)O)ccc2s1)C(C)(C)C [Compound 73, ((2-(((S)-1-((S)-2-((4-chlorobenzyl)(methyl)carbamoyl)pyrrolidin-1-yl)-3,3-dimethyl-1-oxobutan-2-yl)carbamoyl)benzo[b]thiophen-5-yl)difluoromethyl)phosphonic acid]
pKi [1]: 5.00 to 6.00 | pKi [2]: < 5.00

CN(Cc1ccc(Br)cc1)C(=O)[C@@H]1CCCN1C(=O)[C@@H](NC(=O)c1cc2cc(C(F)(F)P(=O)(O)O)ccc2s1)C(C)(C)C [Compound 74, ((2-(((S)-1-((S)-2-((4-bromobenzyl)(methyl)carbamoyl)pyrrolidin-1-yl)-3,3-dimethyl-1-oxobutan-2-yl)carbamoyl)benzo[b]thiophen-5-yl)difluoromethyl)phosphonic acid]
pKi [1]: 5.00 to 6.00 | pKi [2]: < 5.00

CC(C)(C)[C@H](NC(=O)c1cc2cc(C(F)(F)P(=O)(O)O)ccc2s1)C(=O)N1CCC[C@H]1C(=O)N(Cc1ccccc1)C1CCCCC1 [Compound 75, ((2-(((S)-1-((S)-2-(benzyl(cyclohexyl)carbamoyl)pyrrolidin-1-yl)-3,3-dimethyl-1-oxobutan-2-yl)carbamoyl)benzo[b]thiophen-5-yl)difluoromethyl)phosphonic acid]
pKi [1]: 5.00 to 6.00 | pKi [2]: < 5.00

CC(C)(C)[C@H](NC(=O)c1cc2cc(C(F)(F)P(=O)(O)O)ccc2s1)C(=O)N1CCC[C@H]1C(=O)N(Cc1ccccc1)C1CCOCC1 [Compound 76, ((2-(((S)-1-((S)-2-(benzyl(tetrahydro-2H-pyran-4-yl)carbamoyl)pyrrolidin-1-yl)-3,3-dimethyl-1-oxobutan-2-yl)carbamoyl)benzo[b]thiophen-5-yl)difluoromethyl)phosphonic acid]
pKi [1]: 5.00 to 6.00 | pKi [2]: < 5.00

CC(C)(C)[C@H](NC(=O)c1cc2cc(C(F)(F)P(=O)(O)O)ccc2s1)C(=O)N1CCC[C@H]1C(=O)N1CC[C@H]2CCN[C@H]2C1 [Compound 78, ((2-(((S)-3,3-dimethyl-1-((S)-2-((3aR,7aR)-octahydro-1H-pyrrolo[2,3-c]pyridine-6-carbonyl)pyrrolidin-1-yl)-1-oxobutan-2-yl)carbamoyl)benzo[b]thiophen-5-yl)difluoromethyl)phosphonic acid]
pKi [1]: < 5.00 | pKi [2]: < 5.00

CC(C)(C)[C@H](NC(=O)c1cc2cc(C(F)(F)P(=O)(O)O)ccc2s1)C(=O)N1CCC[C@H]1C(=O)N1CC[C@@H]2CNC[C@@H]21 [Compound 79, ((2-(((S)-3,3-dimethyl-1-((S)-2-((3aR,6aR)-octahydropyrrolo[3,4-b]pyrrole-1-carbonyl)pyrrolidin-1-yl)-1-oxobutan-2-yl)carbamoyl)benzo[b]thiophen-5-yl)difluoromethyl)phosphonic acid]
pKi [1]: < 5.00 | pKi [2]: < 5.00

CC(C)(C)[C@H](NC(=O)c1cc2cc(C(F)(F)P(=O)(O)O)ccc2s1)C(=O)N1CCC[C@H]1C(=O)N1C[C@H]2CCN[C@H]2C1 [Compound 80, ((2-(((S)-3,3-dimethyl-1-((S)-2-((3aR,6aR)-octahydropyrrolo[3,4-b]pyrrole-5-carbonyl)pyrrolidin-1-yl)-1-oxobutan-2-yl)carbamoyl)benzo[b]thiophen-5-yl)difluoromethyl)phosphonic acid]
pKi [1]: < 5.00 | pKi [2]: < 5.00

CC(=O)N1CC[C@@H]2CCN(C(=O)[C@@H]3CCCN3C(=O)[C@@H](NC(=O)c3cc4cc(C(F)(F)P(=O)(O)O)ccc4s3)C(C)(C)C)C[C@@H]21 [Compound 81, ((2-(((S)-1-((S)-2-((3aS,7aR)-1-acetyloctahydro-1H-pyrrolo[2,3-c]pyridine-6-carbonyl)pyrrolidin-1-yl)-3,3-dimethyl-1-oxobutan-2-yl)carbamoyl)benzo[b]thiophen-5-yl)difluoromethyl)phosphonic acid]
pKi [1]: < 5.00 | pKi [2]: < 5.00

CCCCC(=O)N1CC[C@@H]2CCN(C(=O)[C@@H]3CCCN3C(=O)[C@@H](NC(=O)c3cc4cc(C(F)(F)P(=O)(O)O)ccc4s3)C(C)(C)C)C[C@@H]21 [Compound 82, ((2-(((S)-3,3-dimethyl-1-oxo-1-((S)-2-((3aS,7aR)-1-pentanoyloctahydro-1H-pyrrolo[2,3-c]pyridine-6-carbonyl)pyrrolidin-1-yl)butan-2-yl)carbamoyl)benzo[b]thiophen-5-yl)difluoromethyl)phosphonic acid]
pKi [1]: < 5.00 | pKi [2]: < 5.00

CC(C)(C)[C@H](NC(=O)c1cc2cc(C(F)(F)P(=O)(O)O)ccc2s1)C(=O)N1CCC[C@H]1C(=O)N1CC[C@H]2CCN(C(=O)c3ccc(F)cc3)[C@H]2C1 [Compound 83, (difluoro(2-(((S)-1-((S)-2-((3aS,7aR)-1-(4-fluorobenzoyl)octahydro-1H-pyrrolo[2,3-c]pyridine-6-carbonyl)pyrrolidin-1-yl)-3,3-dimethyl-1-oxobutan-2-yl)carbamoyl)benzo[b]thiophen-5-yl)methyl)phosphonic acid]
pKi [1]: < 5.00 | pKi [2]: < 5.00
